Test results reported in paper PMC8306634, “Antimicrobial and Antioxidative Activity of Newly Synthesized Peptides Absorbed into Bacterial Cellulose Carrier against Acne vulgaris” (International Journal of Molecular Sciences, 2021).
≈ marks a conversion by molar mass, not a printed value. Where a SMILES comes first, the peptide text is derived from it. Side-chain parts run from the residue outwards. The star is where a group is joined. Lauroyl = CCCCCCCCCCCC(=O)*

Assays:
[1] = DPPH radical scavenging activity; conditions: absorbance at 522 nm, 25 °C, triplicate
Description: The DPPH spectrometric method described by Brand, Williams et al. was applied due to its efficiency on lipophilic and hydrophilic samples [60]. The evaluation of free radical scavenging capacity (FRSC) was based on DPPH (Merck, Darmstadt, Germany) absorbance intensity resulting from its reaction with surfactants. A PG Instruments UV–Vis T60 spectrophotometer (Alab, Warszawa, Poland), interfaced with a computer with a quartz cuvette and of path length 1.0 cm at 25 °C, using a total volume of 3.0 mL, was applied in the range 190–900 nm. As a sample (As) 1.0 mL of P1–P6 aqueous solution (2 mg/mL) and 2.0 mL of ethanolic DPPH solution (5.9·10–2 mg/mL) were mixed and evaluated. As a blank (Ab), 1.0 mL of water, mixed with 2.0 mL of ethanol, was used. Absorbance decrease at 522 nm was measured in 2 min intervals for 6 h. FRSC was calculated as a percentage with the following equation: FRSC (%) = [(Ab – As)/Ab] × 100%. All measurements were performed in triplicate.

S. aureus biofilm = assay: Activity against Staphylococcus aureus biofilm (MBEC, TTC); assay type: cell-based; conditions: for reduction of staphylococcal biofilm: 24 h, TTC read-out 490 nm, ANOVA with Tukey's test p < 0.05
Description: A total of 100µL of S. aureus suspension (10^5 cfu/mL) in TSB) medium was introduced to wells of 96-well plate and incubated at 37 °C/24 h without shaking. Next, whole medium was removed, leaving biofilm-forming organisms attached to the bottom of a 96-well plate. Subsequently, geometric dilutions of peptides in TSB (62.5–250 mg/L) were applied to the wells and left for another 24 h at 37 °C. The culture with no added peptide served as a positive control for microorganism growth, while the well containing the sterile TSB only served as a sterility control for the experiment. After incubation, 5 µL of triphenyl tetrazolium chloride (TTC, Sigma Aldrich, Taufkirchern, Germany) was added to each well and incubated for 5 h at 37 °C. A change of colorless TTC to red formazan confirmed the presence of metabolically active microorganisms. Next, the formazan was dissolved in methanol and its concentration was measured using a Thermo Scientific Multiskan Go spectrometer with a wavelength of 490 nm. In parallel, biofilms in plate wells were agitated using an automated pipette, removed from 96-well plates, and spotted on a stable (M-H) agar plate (Biomaxima, Lublin, Poland) where they were incubated for 48 h. The presence of living colonies on agar indicated the lack of MBEC, while the absence of colonies in the place where spotting was performed confirmed that the particular concentration of peptide can be considered the MBEC.

S. aureus 6538 [2] = conditions: for antimicrobial activity against planktonic S. aureus (in words): Figure 4, highest tested 250 mg/L; for concentration at which reduction of staphylococcal cell number was observed: planktonic S. aureus, Figure 4; for MBC: 6538, 24 h
Description: For experimental purposes, the American type culture collection’s strains of S. aureus 6538 and C. acnes 6919 were applied.
The following standard procedure of MBC evaluation according to CLSI (Methods for Determining Bactericidal Activity of Antimicrobial Agents; Approved Guideline, document M26A, Global Laboratory Standards for a Healthier World, https://clsi.org, accessed on 15 December 2020) was performed. The 96-well plates with bacteria and peptide concentrations were performed and incubated as it was described in Section 2 of Material and Methods. Then the M-H agar plates with spots containing staphylococcal culture were incubated at 37 °C for 24 h. Lack of colony presence in the spot after incubation was considered as lack of microorganism growth, while presence of microbial colony in the spot was considered presence of microorganism growth. All experiments were performed in triplicate.

S. aureus = conditions: 24 h
C. acnes = conditions: 24 h
S. aureus 6538 [3] = assay: Minimal inhibitory concentration against planktonic Staphylococcus aureus; assay type: cell-based; conditions: M-H broth, 24 h/37 °C, tested 0.48-250 mg/L, turbidity 580 nm, triplicate
Description: A loop of staphylococcal culture grown on Columbia agar plate (BioMaxima, Poland) was transferred to liquid tryptone soya broth (TSB, BTL) and incubated at 37 °C for 24 h. Next, culture’s optical density of 1 McFarland (3 × 10^8 cfu/mL) was established using a densitometer (Biomerieux, Poland). Subsequently, the suspension was diluted in the Miller-Hinton Broth (M-H, BioMaxima, Poland) to reach the density of 1 × 10^5 cells/mL. Afterwards, serial dilutions of each peptide was performed in M-H Broth in 96-well plate (BioStar, Germany). Next 100 μL of previously-prepared microbial suspension was added to each well. The highest concentration of each peptide tested in this experimental setting was thus 250 mg/L and it dropped twice in each subsequent well of 96-well plate up to 0.48 mg/L. Plates were incubated for 24 h/37 °C in shaker (Lab Companion, JeioTech, Daejeon, Korea). After incubation, the turbidity of bacterial culture was measured using Thermo Scientific Multiskan Go spectrometer (Thermo-Fischer Scientific, Vantaa, Finland) with wavelength of 580 nm. The microbial culture where no peptide was added served as growth control. The sterility control setting was M-H broth with no microorganism added. The tetrazolium salt (TTC) test served as additional analysis of microbial cell number reduction. All experiments were performed in triplicate.

With CCCCCCCCCCCC(=O)NCCCC[C@H](NC(=O)CCCCCCCCCCC)C(=O)N[C@@H](CCCCN)C(=O)N[C@@H](CCCCN)C(=O)N[C@@H](CCCCN)C(N)=O [Peptide P4, (C12)2-KKKK-NH2] (Lauroyl-K(Lauroyl)KKK-NH2) the “DPPH radicals inhibited over six hours” value ([1]; peptide 2 mg/mL, six hours) was less than 20%, the “reduction of staphylococcal biofilm” value (S. aureus biofilm; exposure to 125 mg/L) was “significant reduction” and the “reduction of staphylococcal biofilm” value (S. aureus biofilm; exposure to 250 mg/L) was “significant reduction”. The “antimicrobial activity against planktonic S. aureus (in words)” value (“antimicrobial activity” for short) (S. aureus 6538 [2]) was “highest anti-staphylococcal activity”, the “concentration at which reduction of staphylococcal cell number was observed” value (shortened to “concentration at which reduction”) (S. aureus 6538 [2]) was 62.5 mg/L and the “Inhibition Zone” value (S. aureus) was 0 mm. For the same compound, the “Inhibition Zone” value (C. acnes) was 0 mm.

In the case of NCCCC[C@H](NC(=O)[C@@H](N)CCCCN)C(=O)NCCCC[C@H](NC(=O)[C@H](CCCCN)NC(=O)[C@@H](N)CCCCN)C(=O)N[C@@H](Cc1c[nH]c2ccccc12)C(=O)N[C@@H](Cc1c[nH]c2ccccc12)C(=O)N[C@@H](Cc1c[nH]c2ccccc12)C(N)=O [Peptide P6, (KK)2-KWWW-NH2] (H-KKK([Lys-Lys])WWW-NH2; N-terminus assumed), the “reduction of staphylococcal biofilm” value (S. aureus biofilm; exposure to 125 mg/L) was “significant reduction”, the “reduction of staphylococcal biofilm” value (S. aureus biofilm; exposure to 250 mg/L) was “significant reduction” and the MBC (S. aureus 6538 [2]) was 250 µg/mL (≈ 205 µM). The “concentration at which reduction” value (S. aureus 6538 [2]) was 125 mg/L, the “Inhibition Zone” value (S. aureus) was 0 mm and the “Inhibition Zone” value (C. acnes) was 0 mm.

With NCCCC[C@H](NC(=O)[C@H](Cc1c[nH]c2ccccc12)NC(=O)[C@@H](N)CCCCN)C(=O)NCCCC[C@H](NC(=O)[C@H](CCCCN)NC(=O)[C@H](Cc1c[nH]c2ccccc12)NC(=O)[C@@H](N)CCCCN)C(=O)N[C@@H](Cc1c[nH]c2ccccc12)C(=O)N[C@@H](Cc1c[nH]c2ccccc12)C(=O)N[C@@H](Cc1c[nH]c2ccccc12)C(N)=O [Peptide P5, (KWK)2-KWWW-NH2] (H-KWKK([Lys-Trp-Lys])WWW-NH2; N-terminus assumed) the “time required for the extinction of fifty percent of the DPPH” value ([1]; peptide 2 mg/mL aqueous (1.0 mL) + 2.0 mL ethanolic DPPH 5.9·10–2 mg/mL) was 124 min, the “reduction of staphylococcal biofilm” value (S. aureus biofilm; exposure to 250 mg/L) was “significant reduction” and the MBC (S. aureus 6538 [2]) was 250 µg/mL (≈ 157 µM). For the same compound, the “concentration at which reduction” value (S. aureus 6538 [2]) was 125 mg/L, the “Inhibition Zone” value (S. aureus) was 1 mm and the “Inhibition Zone” value (C. acnes) was 2 mm.

For (WR)2-KWR-NH2 [Peptide P3], the “antimicrobial activity” value (S. aureus 6538 [2]) was “recordable antimicrobial activity, however only in the highest concentrations of 250 mg/L”.

For (WK)2-KWK-NH2 [Peptide P1], the MIC (S. aureus 6538 [3]) was “not observed” and the “antimicrobial activity” value (S. aureus 6538 [2]) was “lack of antimicrobial activity”.

For NCCCC[C@H](NC(=O)[C@H](Cc1c[nH]c2ccccc12)NC(=O)[C@H](CCCCN)NC(=O)[C@H](Cc1c[nH]c2ccccc12)NC(=O)[C@H](CCCCNC(=O)[C@H](CCCCN)NC(=O)[C@H](Cc1c[nH]c2ccccc12)NC(=O)[C@H](CCCCN)NC(=O)[C@@H](N)Cc1c[nH]c2ccccc12)NC(=O)[C@H](CCCCN)NC(=O)[C@H](Cc1c[nH]c2ccccc12)NC(=O)[C@H](CCCCN)NC(=O)[C@@H](N)Cc1c[nH]c2ccccc12)C(N)=O [Peptide P2, (WKWK)2-KWKWK-NH2] (H-WKWKK([Lys-Trp-Lys-Trp])WKWK-NH2), the MBEC (S. aureus biofilm; 24 h S. aureus biofilm in TSB, peptides 62.5–250 mg/L for 24 h at 37 °C, spotting on M-H agar) was “not achieved”, the “reduction of staphylococcal biofilm” value (S. aureus biofilm; exposure to 125 mg/L) was “significant reduction” and the “reduction of staphylococcal biofilm” value (S. aureus biofilm; exposure to 250 mg/L) was “significant reduction”. The “Inhibition Zone” value (S. aureus) was 0 mm and the “Inhibition Zone” value (C. acnes) was 1.6 ± 0.9 mm.
